Measurements reported in US20260027068A1, “METHODS OF ADM[…]-KETAMINE” (Perception Neuroscience, Inc., priority 2022, published 2026).

Tested on: subjects with TRD
Assay: Adverse events (TEAEs, SAEs) in the TRD study
Format: in vivo, human
Conditions: 60 mg (n = 35)
From the text: The definitions of an AE and SAE can be found in Section F. AEs were reported by the subject (or, when appropriate, by a caregiver, surrogate, or the subject's legally authorized representative). The Investigator and any designees were responsible for detecting, documenting, and recording events that meet the definition of an AE or SAE and remained responsible for following up AEs that were serious, considered related to the study treatment or study procedures, or that caused the subject to discontinue from the study.
All AEs were collected from the signing of the ICF until the second follow-up visit (Day 15) at the time points specified in the Schedule of Activities (Section C). Medical occurrences that began before the start of study treatment but after obtaining informed consent were recorded on the Medical History/Current Medical Conditions section of the CRF, not the AE section. All SAEs were recorded and reported to the Sponsor or designee within 24 hours as indicated in Section F. The Investigator submitted any updated SAE data to the Sponsor or designee within 24 hours of it being available. Investigators were not obligated to actively seek AE or SAE information after the conclusion of study participation. However, if the Investigator learns of any SAE, including a death, at any time after a subject has been discharged from the study, and he/she considers the event to be reasonably related to the study treatment or study participation, the Investigator must promptly notify the Sponsor or designee. The method of recording, evaluating, and assessing the causality of AEs and SAEs and the procedures for completing and transmitting SAE reports are provided in Section F.
An AE is any untoward medical occurrence in a patient or subject, temporally associated with the use of study treatment, whether or not considered related to the study treatment. An AE can therefore be any unfavorable and unintended sign (including an abnormal laboratory finding), symptom, or disease (new or exacerbated) temporally associated with the use of study treatment.
If an event is not an AE per the definition above, then it cannot be an SAE even if serious conditions are met (e.g., hospitalization for signs/symptoms of the disease under study). A Serious Adverse Event (SAE) is defined as any untoward medical occurrence that, at any dose: a) results in death; b) is life-threatening; c) requires inpatient hospitalization or prolongation of existing hospitalization; d) results in persistent disability/incapacity; or e) is a congenital anomaly/birth defect. The term “life-threatening” in the definition of “serious” refers to an event in which the subject was at risk of death at the time of the event. […] In general, hospitalization signifies that the subject has been detained (usually involving at least an overnight stay) at the hospital or emergency ward for observation and/or treatment that would not have been appropriate in the physician's office or outpatient setting. Complications that occur during hospitalization are AEs. If a complication prolongs hospitalization or fulfills any other serious criteria, the event is serious. When in doubt as to whether “hospitalization” occurred or was necessary, the AE should be considered serious. […] The term disability means a substantial disruption of a person's ability to conduct normal life functions.
(MedDRA; Version 23.0 or higher). Treatment-emergent adverse events (TEAEs) are AEs with onset or worsening after the start of study treatment. The AE summaries will be primarily based on TEAEs. The number and percentage of subjects with TEAEs will be summarized by treatment group, system organ class, and preferred term for all TEAEs, treatment-related TEAEs, SAEs, serious TEAEs, severe TEAEs, TEAEs of special interest, and all TEAEs leading to study drug discontinuation. All TEAEs will be further summarized by maximum severity and causality. The TEAEs of special interest will be identified in the SAP. […]

CN[C@@]1(c2ccccc2Cl)CCCCC1=O [PCN 101]
Number of subjects with any treatment-emergent adverse events: 18 | Number of treatment-emergent adverse events: 53 | Subjects with any treatment-emergent adverse events: (%) of subjects: (51) | TEAE PT Alopecia: (%) of subjects: (3) | TEAE PT Alopecia: number of subjects: 1 | TEAE PT Aversion: (%) of subjects: (0) | TEAE PT Aversion: number of subjects: 0 | TEAE PT Balance disorder: (%) of subjects: (0) | TEAE PT Balance disorder: number of subjects: 0 | TEAE PT Blood pressure increased: (%) of subjects: (3) | TEAE PT Blood pressure increased: number of subjects: 1 | TEAE PT Bruxism: (%) of subjects: (0) | TEAE PT Bruxism: number of subjects: 0 | TEAE PT Confusional state: (%) of subjects: (3) | TEAE PT Confusional state: number of subjects: 1 | TEAE PT Defect conduction intraventricular: (%) of subjects: (3) | TEAE PT Defect conduction intraventricular: number of subjects: 1 | TEAE PT Derealisation: (%) of subjects: (9) | TEAE PT Derealisation: number of subjects: 3 | TEAE PT Diarrhoea: (%) of subjects: (0) | TEAE PT Diarrhoea: number of subjects: 0 | TEAE PT Dissociation: (%) of subjects: (0) | TEAE PT Dissociation: number of subjects: 0 | TEAE PT Dizziness: (%) of subjects: (20) | TEAE PT Dizziness: number of subjects: 7 | TEAE PT Dry mouth: (%) of subjects: (3) | TEAE PT Dry mouth: number of subjects: 1 | TEAE PT Dysarthria: (%) of subjects: (6) | TEAE PT Dysarthria: number of subjects: 2 | TEAE PT Dyspnoea exertional: (%) of subjects: (0) | TEAE PT Dyspnoea exertional: number of subjects: 0 | TEAE PT Energy increased: (%) of subjects: (3) | TEAE PT Energy increased: number of subjects: 1 | TEAE PT Euphoric mood: (%) of subjects: (3) | TEAE PT Euphoric mood: number of subjects: 1 | TEAE PT Fatigue: (%) of subjects: (3) | TEAE PT Fatigue: number of subjects: 1 | TEAE PT Feeling abnormal: (%) of subjects: (3) | TEAE PT Feeling abnormal: number of subjects: 1 | TEAE PT Feeling drunk: (%) of subjects: (6) | TEAE PT Feeling drunk: number of subjects: 2 | TEAE PT Haematuria: (%) of subjects: (0) | TEAE PT Haematuria: number of subjects: 0 | TEAE PT Headache: (%) of subjects: (6) | TEAE PT Headache: number of subjects: 2 | TEAE PT Hyperacusis: (%) of subjects: (0) | TEAE PT Hyperacusis: number of subjects: 0 | TEAE PT Hyperhidrosis: (%) of subjects: (0) | TEAE PT Hyperhidrosis: number of subjects: 0 | TEAE PT Hyperphagia: (%) of subjects: (3) | TEAE PT Hyperphagia: number of subjects: 1 | TEAE PT Hypoaesthesia oral: (%) of subjects: (3) | TEAE PT Hypoaesthesia oral: number of subjects: 1 | TEAE PT Hypoaesthesia: (%) of subjects: (0) | TEAE PT Hypoaesthesia: number of subjects: 0 | TEAE PT Increased appetite: (%) of subjects: (3) | TEAE PT Increased appetite: number of subjects: 1 | TEAE PT Influenza like illness: (%) of subjects: (0) | TEAE PT Influenza like illness: number of subjects: 0 | TEAE PT Infusion site hypoaesthesia: (%) of subjects: (3) | TEAE PT Infusion site hypoaesthesia: number of subjects: 1 | TEAE PT Left ventricular hypertrophy: (%) of subjects: (3) | TEAE PT Left ventricular hypertrophy: number of subjects: 1 | TEAE PT Lethargy: (%) of subjects: (3) | TEAE PT Lethargy: number of subjects: 1 | TEAE PT Limb discomfort: (%) of subjects: (0) | TEAE PT Limb discomfort: number of subjects: 0 | TEAE PT Logorrhoea: (%) of subjects: (0) | TEAE PT Logorrhoea: number of subjects: 0 | TEAE PT Memory impairment: (%) of subjects: (0) | TEAE PT Memory impairment: number of subjects: 0 | TEAE PT Muscle strain: (%) of subjects: (0) | TEAE PT Muscle strain: number of subjects: 0 | TEAE PT Muscular weakness: (%) of subjects: (3) | TEAE PT Muscular weakness: number of subjects: 1 | TEAE PT Nausea: (%) of subjects: (9) | TEAE PT Nausea: number of subjects: 3 | TEAE PT Paraesthesia: (%) of subjects: (6) | TEAE PT Paraesthesia: number of subjects: 2 | TEAE PT Rhinorrhoea: (%) of subjects: (0) | TEAE PT Rhinorrhoea: number of subjects: 0 | TEAE PT Sedation: (%) of subjects: (3) | TEAE PT Sedation: number of subjects: 1 | TEAE PT Sensory disturbance: (%) of subjects: (0) | TEAE PT Sensory disturbance: number of subjects: 0 | TEAE PT Sinusitis: (%) of subjects: (0) | TEAE PT Sinusitis: number of subjects: 0 | TEAE PT Skin abrasion: (%) of subjects: (3) | TEAE PT Skin abrasion: number of subjects: 1 | TEAE PT Slow speech: (%) of subjects: 0) | TEAE PT Slow speech: number of subjects: 0 | TEAE PT Smoke sensitivity: (%) of subjects: (3) | TEAE PT Smoke sensitivity: number of subjects: 1 | TEAE PT Somnolence: (%) of subjects: (11) | TEAE PT Somnolence: number of subjects: 4 | TEAE PT Tachycardia: (%) of subjects: (0) | TEAE PT Tachycardia: number of subjects: 0 | TEAE PT Throat tightness: (%) of subjects: (3) | TEAE PT Throat tightness: number of subjects: 1 | TEAE PT Time perception altered: (%) of subjects: (3) | TEAE PT Time perception altered: number of subjects: 1 | TEAE PT Urinary tract infection: (%) of subjects: (0) | TEAE PT Urinary tract infection: number of subjects: 0 | TEAE PT Venous injury: (%) of subjects: (0) | TEAE PT Venous injury: number of subjects: 0 | TEAE PT Vertigo: (%) of subjects: (0) | TEAE PT Vertigo: number of subjects: 0 | TEAE PT Vessel puncture site erythema: (%) of subjects: (0) | TEAE PT Vessel puncture site erythema: number of subjects: 0 | TEAE PT Vision blurred: (%) of subjects: (3) | TEAE PT Vision blurred: number of subjects: 1 | TEAE PT Visual impairment: (%) of subjects: (0) | TEAE PT Visual impairment: number of subjects: 0 | TEAE SOC Cardiac disorders: (%) of subjects: (6) | TEAE SOC Cardiac disorders: number of subjects: 2 | TEAE SOC Ear and labyrinth disorders: (%) of subjects: (0) | TEAE SOC Ear and labyrinth disorders: number of subjects: 0 | TEAE SOC Eye disorders: (%) of subjects: (3) | TEAE SOC Eye disorders: number of subjects: 1 | TEAE SOC Gastrointestinal disorders: (%) of subjects: (14) | TEAE SOC Gastrointestinal disorders: number of subjects: 5 | TEAE SOC General disorders and administration site conditions: (%) of subjects: (11) | TEAE SOC General disorders and administration site conditions: number of subjects: 4 | TEAE SOC Immune system disorders: (%) of subjects: (3) | TEAE SOC Immune system disorders: number of subjects: 1 | TEAE SOC Infections and infestations: (%) of subjects: (0) | TEAE SOC Infections and infestations: number of subjects: 0 | TEAE SOC Injury, poisoning and procedural complications: (%) of subjects: (3) | TEAE SOC Injury, poisoning and procedural complications: number of subjects: 1 | TEAE SOC Investigations: (%) of subjects: (3) | TEAE SOC Investigations: number of subjects: 1 | TEAE SOC Metabolism and nutrition disorders: (%) of subjects: (3) | TEAE SOC Metabolism and nutrition disorders: number of subjects: 1 | TEAE SOC Musculoskeletal and connective tissue disorders: (%) of subjects: (3) | TEAE SOC Musculoskeletal and connective tissue disorders: number of subjects: 1 | TEAE SOC Nervous system disorders: (%) of subjects: (40) | TEAE SOC Nervous system disorders: number of subjects: 14 | TEAE SOC Psychiatric disorders: (%) of subjects: (14) | TEAE SOC Psychiatric disorders: number of subjects: 5 | TEAE SOC Renal and urinary disorders: (%) of subjects: (0) | TEAE SOC Renal and urinary disorders: number of subjects: 0 | TEAE SOC Respiratory, thoracic and mediastinal disorders: (%) of subjects: (3) | TEAE SOC Respiratory, thoracic and mediastinal disorders: number of subjects: 1 | TEAE SOC Skin and subcutaneous tissue disorders: (%) of subjects: (3) | TEAE SOC Skin and subcutaneous tissue disorders: number of subjects: 1
